# Source: patent publication US8940742B2, “Heterocyclic compounds and uses thereof” (Infinity Pharmaceuticals, Inc., priority 2012, dated 2015)
# Tests used:
# Assay in all cases: PI3-Kinase Promega ADP-Glo Max assay
# Format in all cases: biochemical
# PI3K α = target: T1, PI3K α (Homo sapiens, UniProt P42336); details: 20 nM kinase, 3 mM ATP, 500 uM diC8-PtdInsP
# T1 construct: purchased Millipore
# Method: (§1) Promega ADP-Glo Max assay kit (Cat. No. V7002) was utilized to determine IC50 values for α, β, δ and γ isoforms of human Class I PI3 kinases (Millipore). Samples of kinase (20 nM α or δ, 40 nM β or γ isoform) were incubated with compound for 15 minutes at room temperature in reaction buffer (15 mM HEPES pH 7.4, 20 mM NaCl, 1 mM EGTA, 0.02% Tween 20, 10 mM MgCl2, 0.2 mg/mL bovine-γ-globulins) followed by addition of ATP/diC8-PtdInsP mixture to give final concentrations of 3 mM ATP and 500 uM diC8-PtdInsP. Reactions were incubated at room temperature for 2 hours followed by addition of 25 uL of stop solution. After a 40-minute incubation at room temperature, 50 uL of Promega detection mix was added followed by incubation for 1 hour at room temperature. Plates were then read on Envision plate reader in luminescence mode. Data was converted to % inhibition using the following equation below:
# (§2) [formula] where S is the sample luminescence, Pos is a positive control without added PI3K, Neg is the negative control without added compound. Data was then plotted as % inhibition vs compound concentration. Data fit to 4 parameter logistic equation to determine IC50 values: […]
# (§3) Certain compounds provided herein were tested in PI3-Kinase Promega Assay using procedures as described above to determine IC50 values for α, β, δ and/or γ isoforms.
# PI3K β = target: T2, PI3K β (Homo sapiens, UniProt P42338); details: 40 nM kinase, 3 mM ATP, 500 uM diC8-PtdInsP
# T2 construct: purchased Millipore
# T2 sequence (P42338 whole entry): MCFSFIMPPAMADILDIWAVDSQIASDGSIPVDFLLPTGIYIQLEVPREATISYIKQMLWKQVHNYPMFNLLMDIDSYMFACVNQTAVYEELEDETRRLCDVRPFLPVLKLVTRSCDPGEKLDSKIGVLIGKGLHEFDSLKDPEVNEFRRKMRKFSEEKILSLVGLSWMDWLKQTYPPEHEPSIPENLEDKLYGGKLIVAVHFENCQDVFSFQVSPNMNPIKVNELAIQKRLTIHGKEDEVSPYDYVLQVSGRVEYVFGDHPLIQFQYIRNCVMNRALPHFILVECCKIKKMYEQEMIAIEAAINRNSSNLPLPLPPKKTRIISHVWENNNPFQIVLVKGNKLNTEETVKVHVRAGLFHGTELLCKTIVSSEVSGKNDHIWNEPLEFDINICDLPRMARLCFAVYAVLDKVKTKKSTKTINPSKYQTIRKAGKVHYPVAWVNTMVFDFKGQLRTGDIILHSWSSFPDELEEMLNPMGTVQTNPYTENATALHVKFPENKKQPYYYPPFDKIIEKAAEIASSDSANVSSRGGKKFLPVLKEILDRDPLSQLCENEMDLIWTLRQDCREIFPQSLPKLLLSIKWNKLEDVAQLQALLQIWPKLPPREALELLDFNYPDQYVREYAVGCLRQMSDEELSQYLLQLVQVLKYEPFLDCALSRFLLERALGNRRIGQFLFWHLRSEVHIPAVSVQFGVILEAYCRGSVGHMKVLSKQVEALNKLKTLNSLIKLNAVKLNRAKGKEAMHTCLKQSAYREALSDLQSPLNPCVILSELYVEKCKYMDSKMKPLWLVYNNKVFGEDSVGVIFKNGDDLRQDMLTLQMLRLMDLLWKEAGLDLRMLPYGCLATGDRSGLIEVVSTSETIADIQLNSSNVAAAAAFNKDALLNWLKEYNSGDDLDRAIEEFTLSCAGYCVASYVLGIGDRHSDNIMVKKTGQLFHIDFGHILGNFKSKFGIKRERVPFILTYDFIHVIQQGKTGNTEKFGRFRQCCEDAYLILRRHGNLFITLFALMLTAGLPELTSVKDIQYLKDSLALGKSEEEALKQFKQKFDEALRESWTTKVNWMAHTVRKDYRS
# T2 sequence (P27986 whole entry partner): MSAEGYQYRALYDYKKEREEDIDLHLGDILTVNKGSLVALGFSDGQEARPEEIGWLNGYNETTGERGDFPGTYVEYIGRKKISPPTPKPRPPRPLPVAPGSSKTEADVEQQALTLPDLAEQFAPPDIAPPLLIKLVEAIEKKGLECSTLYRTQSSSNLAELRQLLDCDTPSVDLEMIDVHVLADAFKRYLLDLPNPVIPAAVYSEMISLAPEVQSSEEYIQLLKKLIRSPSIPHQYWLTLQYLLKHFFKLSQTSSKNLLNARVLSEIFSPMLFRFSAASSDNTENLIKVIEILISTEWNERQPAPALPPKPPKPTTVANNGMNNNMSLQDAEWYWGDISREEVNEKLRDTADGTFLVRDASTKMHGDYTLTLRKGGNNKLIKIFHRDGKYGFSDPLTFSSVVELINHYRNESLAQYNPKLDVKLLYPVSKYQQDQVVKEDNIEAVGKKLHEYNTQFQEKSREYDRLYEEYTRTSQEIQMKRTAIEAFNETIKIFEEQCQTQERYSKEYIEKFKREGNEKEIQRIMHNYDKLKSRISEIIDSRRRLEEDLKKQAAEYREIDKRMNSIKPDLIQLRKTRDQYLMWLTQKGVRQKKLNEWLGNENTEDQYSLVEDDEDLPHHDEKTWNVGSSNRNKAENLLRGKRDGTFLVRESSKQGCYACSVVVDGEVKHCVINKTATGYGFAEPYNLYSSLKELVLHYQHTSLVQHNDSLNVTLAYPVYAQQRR
# Method: as §1, §2, §3
# PI3K δ = target: T3, PI3K δ (Homo sapiens, UniProt O00329); details: 20 nM kinase, 3 mM ATP, 500 uM diC8-PtdInsP
# T3 construct: purchased Millipore
# T3 sequence (O00329 whole entry): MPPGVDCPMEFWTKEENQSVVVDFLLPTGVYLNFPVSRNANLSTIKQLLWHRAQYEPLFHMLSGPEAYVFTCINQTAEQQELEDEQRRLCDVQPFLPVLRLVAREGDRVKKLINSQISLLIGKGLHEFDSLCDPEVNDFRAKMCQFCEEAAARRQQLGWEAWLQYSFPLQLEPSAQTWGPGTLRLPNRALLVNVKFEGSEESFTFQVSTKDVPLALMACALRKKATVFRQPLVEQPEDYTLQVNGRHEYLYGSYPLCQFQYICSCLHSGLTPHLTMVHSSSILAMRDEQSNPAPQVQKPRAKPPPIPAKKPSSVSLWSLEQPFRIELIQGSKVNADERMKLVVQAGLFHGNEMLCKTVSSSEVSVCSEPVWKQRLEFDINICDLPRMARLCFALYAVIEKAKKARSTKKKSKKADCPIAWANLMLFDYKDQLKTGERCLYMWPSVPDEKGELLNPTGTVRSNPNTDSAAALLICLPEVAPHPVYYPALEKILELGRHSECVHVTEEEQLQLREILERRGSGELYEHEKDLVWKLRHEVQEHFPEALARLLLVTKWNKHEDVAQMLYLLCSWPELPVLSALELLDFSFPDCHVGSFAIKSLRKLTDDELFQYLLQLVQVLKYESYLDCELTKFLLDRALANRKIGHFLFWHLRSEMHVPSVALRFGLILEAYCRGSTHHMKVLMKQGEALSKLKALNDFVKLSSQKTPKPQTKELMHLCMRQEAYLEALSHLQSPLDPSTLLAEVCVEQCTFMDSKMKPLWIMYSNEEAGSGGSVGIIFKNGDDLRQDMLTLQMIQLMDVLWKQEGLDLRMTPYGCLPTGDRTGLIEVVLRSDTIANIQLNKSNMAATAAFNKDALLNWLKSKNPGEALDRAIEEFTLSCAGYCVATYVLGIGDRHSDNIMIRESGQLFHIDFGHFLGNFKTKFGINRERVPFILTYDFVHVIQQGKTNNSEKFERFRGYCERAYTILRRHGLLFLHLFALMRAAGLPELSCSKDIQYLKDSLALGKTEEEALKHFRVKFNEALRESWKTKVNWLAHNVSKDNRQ
# T3 sequence (P27986 whole entry partner): as the sequence (P27986 whole entry partner) above
# Method: as §1, §2, §3
# PI3K γ = target: T4, PI3K γ (Homo sapiens, UniProt P48736); details: 40 nM kinase, 3 mM ATP, 500 uM diC8-PtdInsP
# T4 construct: purchased Millipore
# T4 sequence (P48736 whole entry): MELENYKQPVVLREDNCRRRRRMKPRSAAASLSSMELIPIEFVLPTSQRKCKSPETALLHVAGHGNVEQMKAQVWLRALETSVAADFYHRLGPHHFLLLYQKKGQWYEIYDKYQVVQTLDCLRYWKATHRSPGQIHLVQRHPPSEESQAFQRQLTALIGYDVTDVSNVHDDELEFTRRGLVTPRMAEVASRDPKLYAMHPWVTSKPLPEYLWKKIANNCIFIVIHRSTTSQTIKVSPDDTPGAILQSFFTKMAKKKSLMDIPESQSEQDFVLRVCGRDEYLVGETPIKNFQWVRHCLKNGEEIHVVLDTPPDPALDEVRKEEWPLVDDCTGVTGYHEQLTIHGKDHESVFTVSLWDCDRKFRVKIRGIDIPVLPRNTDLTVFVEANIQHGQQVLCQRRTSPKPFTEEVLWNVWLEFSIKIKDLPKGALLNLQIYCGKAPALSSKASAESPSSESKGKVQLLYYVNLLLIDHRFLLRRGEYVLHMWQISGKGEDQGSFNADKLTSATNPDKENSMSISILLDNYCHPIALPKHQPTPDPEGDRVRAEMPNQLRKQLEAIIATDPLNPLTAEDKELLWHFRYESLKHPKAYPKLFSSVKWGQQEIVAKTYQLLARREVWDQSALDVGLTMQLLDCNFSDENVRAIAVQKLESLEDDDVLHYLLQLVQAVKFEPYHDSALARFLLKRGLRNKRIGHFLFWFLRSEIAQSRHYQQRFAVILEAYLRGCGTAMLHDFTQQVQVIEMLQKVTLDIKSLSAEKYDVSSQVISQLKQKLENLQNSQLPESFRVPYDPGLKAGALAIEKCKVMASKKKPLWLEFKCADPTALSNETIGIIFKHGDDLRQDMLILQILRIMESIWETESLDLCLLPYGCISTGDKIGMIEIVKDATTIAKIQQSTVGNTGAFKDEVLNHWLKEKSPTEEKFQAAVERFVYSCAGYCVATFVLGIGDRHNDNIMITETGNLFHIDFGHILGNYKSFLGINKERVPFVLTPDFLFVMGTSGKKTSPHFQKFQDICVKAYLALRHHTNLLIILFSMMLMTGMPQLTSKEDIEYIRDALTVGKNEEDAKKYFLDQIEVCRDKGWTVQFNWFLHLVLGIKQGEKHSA
# Method: Promega ADP-Glo Max assay kit (Cat. No. V7002) was utilized to determine IC50 values for α, β, δ and γ isoforms of human Class I PI3 kinases (Millipore). […] Reactions were incubated at room temperature for 2 hours followed by addition of 25 uL of stop solution. After a 40-minute incubation at room temperature, 50 uL of Promega detection mix was added followed by incubation for 1 hour at room temperature. Plates were then read on Envision plate reader in luminescence mode. Data was converted to % inhibition using the following equation below:
# [formula] where S is the sample luminescence, Pos is a positive control without added PI3K, Neg is the negative control without added compound. Data was then plotted as % inhibition vs compound concentration.
# as §3
# T1 sequence (P42336 whole entry): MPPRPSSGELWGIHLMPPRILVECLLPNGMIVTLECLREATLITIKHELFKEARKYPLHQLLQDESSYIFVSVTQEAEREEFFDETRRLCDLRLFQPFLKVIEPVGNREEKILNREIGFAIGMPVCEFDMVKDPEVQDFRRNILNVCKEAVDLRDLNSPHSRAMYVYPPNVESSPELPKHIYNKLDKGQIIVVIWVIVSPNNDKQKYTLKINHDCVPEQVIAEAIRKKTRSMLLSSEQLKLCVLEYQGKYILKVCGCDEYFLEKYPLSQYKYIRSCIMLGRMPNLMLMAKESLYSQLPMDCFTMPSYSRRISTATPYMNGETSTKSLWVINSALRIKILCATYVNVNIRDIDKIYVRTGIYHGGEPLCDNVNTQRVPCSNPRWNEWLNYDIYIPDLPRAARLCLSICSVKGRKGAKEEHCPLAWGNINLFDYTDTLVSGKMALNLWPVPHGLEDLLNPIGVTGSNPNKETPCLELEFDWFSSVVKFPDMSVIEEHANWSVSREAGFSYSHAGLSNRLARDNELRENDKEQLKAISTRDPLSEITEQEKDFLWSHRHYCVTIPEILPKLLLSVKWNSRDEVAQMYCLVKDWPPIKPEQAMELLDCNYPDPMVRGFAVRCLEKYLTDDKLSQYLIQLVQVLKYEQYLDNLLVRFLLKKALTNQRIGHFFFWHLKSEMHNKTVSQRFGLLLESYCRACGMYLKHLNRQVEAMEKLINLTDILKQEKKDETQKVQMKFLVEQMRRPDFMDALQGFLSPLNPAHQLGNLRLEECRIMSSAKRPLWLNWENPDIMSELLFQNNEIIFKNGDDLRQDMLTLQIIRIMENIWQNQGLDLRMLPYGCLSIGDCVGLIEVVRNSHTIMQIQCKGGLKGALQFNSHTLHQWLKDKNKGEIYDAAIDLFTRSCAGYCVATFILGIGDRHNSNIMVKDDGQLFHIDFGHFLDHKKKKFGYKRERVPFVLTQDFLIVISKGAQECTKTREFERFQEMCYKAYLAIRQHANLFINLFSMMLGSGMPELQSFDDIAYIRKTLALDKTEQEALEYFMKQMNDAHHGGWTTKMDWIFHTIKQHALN
# T1 sequence (P27986 whole entry partner): as the sequence (P27986 whole entry partner) above
Structure (SMILES),IC50 (PI3K α) [µM],IC50 (PI3K β) [µM],IC50 (PI3K δ) [µM],IC50 (PI3K γ) [µM]
C[C@H](NC(=O)c1c(N)nn2cccnc12)c1cc2cccc(Cl)c2c(=O)n1CCNCCO [Compound 243],1 to 10,< 0.1,0.1 to 1,1 to 10
C[C@H](NC(=O)c1c(N)nn2cccnc12)c1c(Br)c2cccc(F)c2c(=O)n1-c1ccccc1 [Compound 255],1 to 10,1 to 10,1 to 10,0.1 to 1
C[C@H](NC(=O)c1nc(-c2cncc(NS(C)(=O)=O)c2)cnc1N)c1cc2cccc(Cl)c2c(=O)n1C1CC1 [Compound 172],< 0.1,< 0.1,< 0.1,< 0.1
COc1cccc2c(Br)c([C@H](C)NC(=O)c3c(N)nn4cccnc34)n(-c3ccccc3)c(=O)c12 [Compound 256],> 10,> 10,1 to 10,0.1 to 1
COC(=O)c1ncsc1-c1cccc2cc([C@H](C)NC(=O)c3c(N)nn4cccnc34)n(-c3ccccc3)c(=O)c12 [Compound 248],> 10,> 10,> 10,1 to 10
C[C@H](NC(=O)c1c(N)nn2cccnc12)c1nn2ccc(Cl)c2c(=O)n1-c1ccccc1 [Compound 286],> 10,> 10,> 10,> 10
C[C@H](NC(=O)c1cc(-c2cccc(NS(C)(=O)=O)c2)cnc1N)c1cc2cccc(Cl)c2c(=O)n1-c1ccccc1 [Compound 306],> 10,> 10,> 10,> 10
CC(=O)Nc1ncc(-c2cccc3cc([C@H](C)NC(=O)c4c(N)nn5cccnc45)n(-c4ccccc4)c(=O)c23)s1 [Compound 247],1 to 10,> 10,1 to 10,0.1 to 1
COc1cccc2c(C)c([C@H](C)NC(=O)c3c(N)nn4cccnc34)n(-c3ccccc3)c(=O)c12 [Compound 261],> 10,> 10,1 to 10,0.1 to 1
COc1ncc(-c2cccc3cc([C@H](C)NC(=O)c4c(N)nn5cccnc45)n(-c4ccccc4)c(=O)c23)s1 [Compound 246],> 10,> 10,1 to 10,0.1 to 1

# Second part, the molecule after the results:
IC50 (PI3K α) [µM],IC50 (PI3K β) [µM],IC50 (PI3K δ) [µM],IC50 (PI3K γ) [µM],Structure (SMILES)
> 10,> 10,> 10,> 10,CC(C)c1ccnc2c(C(=O)N[C@@H](C)c3cc4cccc(Cl)c4c(=O)n3-c3ccccc3)c(N)nn12 [Compound 177]
> 10,> 10,1 to 10,0.1 to 1,C[C@H](NC(=O)c1c(N)nn2cccnc12)c1cc2cccc(/C=N\O)c2c(=O)n1-c1ccccc1 [Compound 226]
> 10,> 10,> 10,> 10,C[C@H](NC(=O)c1c(N)nn2cccnc12)c1cc2cccc(NC3CCCCC3)c2c(=O)n1-c1ccccc1 [Compound 265]
> 10,> 10,> 10,> 10,C[C@H](NC(=O)c1c(N)nn2c1NCCC2)c1cc2cccc(Cl)c2c(=O)n1-c1ccccc1 [Compound 307]
> 10,> 10,> 10,> 10,COc1cccc(-c2cnc(N)c(C(=O)N[C@@H](C)c3cc4cccc(Cl)c4c(=O)n3-c3ccccc3)n2)c1 [Compound 105]
> 10,1 to 10,1 to 10,1 to 10,C[C@H](NC(=O)c1c(N)oc2cccnc12)c1cc2cccc(Cl)c2c(=O)n1-c1ccccc1 [Compound 298]
> 10,> 10,< 0.1,> 10,CC(=O)N(C)Cc1cccc2cc([C@H](C)NC(=O)c3c(N)nn4cccnc34)n(-c3ccccc3)c(=O)c12 [Compound 232]
> 10,1 to 10,> 10,1 to 10,Nc1nn2cccnc2c1C(=O)N1CCC[C@H]1c1cc2cccc(Cl)c2c(=O)n1-c1ccccc1 [Compound 147]
